Patent US20120015907A1, “Furopyridine compounds and uses thereof” (NOVARTIS AG, priority 2010, published 2012)

What follows are molecules tested against T1, HCV polymerase (Hepatitis C virus genotype 1b, UniProt Q9WMX2) (assay: biochemical). Conditions: NS5B polymerase IC50 μM, polymerase assay of Biological Example 1.
T1 construct: (His)6 (C)
Description: A number of assays have been published to assess these activities. A general method that assesses the gross increase of HCV virus in culture was disclosed in U.S. Pat. No. 5,738,985 to Miles et al. In vitro assays have been reported in Ferrari et al. Jnl. of Vir., 73:1649-1654, 1999; Ishii et al., Hepatology, 29:1227-1235, 1999; Lohmann et al., Jnl of Bio. Chem., 274:10807-10815, 1999; and Yamashita et al., Jnl. of Bio. Chem., 273:15479-15486, 1998.
WO 97/12033, filed on Sep. 27, 1996, by Emory University, listing C. Hagedorn and A. Reinoldus as inventors, which claims priority to U.S. Provisional Patent Application Ser. No. 60/004,383, filed on September 1995, described an HCV polymerase assay that can be used to evaluate the activity of the of the compounds described herein. Another HCV polymerase assay has been reported by Bartholomeusz, et al., Hepatitis C Virus (HCV) RNA polymerase assay using cloned HCV non-structural proteins; Antiviral Therapy 1996:1(Supp 4) 18-24.
In the case of CNC(=O)c1c(-c2ccc(C)cc2)oc2nc(N(CCCCCP(C)(=O)O)S(C)(=O)=O)c(I)cc12 [Example 23.9998, 5-(N-(5-iodo-3-(methylcarbamoyl)-2-p-tolylfuro[2,3-b]pyridin-6-yl)methylsulfonamido)pentyl (methyl)phosphinic acid], the IC50 is reported as 0.011 µM.

Same assay, conditions: polymerase assay of Biological Example 1; read-out: NS5B polymerase IC50
In the case of CNC(=O)c1c(-c2ccc(F)cc2)oc2nc(N(CCCN3CCNC3=O)S(C)(=O)=O)c(I)cc12 [Example 18.91, 2-(4-fluorophenyl)-5-iodo-N-methyl-6-(N-(3-(2-oxoimidazolidin-1-yl)propyl)methylsulfonamido)furo[2,3-b]pyridine-3-carboxamide], the IC50 is reported as 0.133 µM. Molecule C=C(C)c1cc2c(C(=O)NC)c(-c3ccc(F)cc3)oc2nc1N(C)S(C)(=O)=O [Example 2.4, 2-(4-fluorophenyl)-N-methyl-6-(N-methylmethylsulfonamido)-5-(prop-1-en-2-yl)furo[2,3-b]pyridine-3-carboxamide] has an IC50 of 0.132 µM. With CCc1ccc(-c2oc3nc(N(CCOCC(C)(C)C(=O)O)S(C)(=O)=O)c(C4CC4)cc3c2C(=O)NC)cc1 [Example 41.1, 3-(2-(N-(5-Cyclopropyl-2-(4-ethylphenyl)-3-(methylcarbamoyl)furo[2,3-b]pyridin-6-yl)methylsulfonamido)ethoxy)-2,2-dimethylpropanoic acid] the IC50 was 0.002 µM. With CNC(=O)c1c(-c2ccc(C)cc2)oc2nc(N(CCC[C@@H](C)C(=O)N[C@@H](CO)Cc3ccccc3)S(C)(=O)=O)c(C3CC3)cc12 [Example 47.1] the IC50 was 0.668 µM. Molecule CCc1cc2c(C(=O)NC)c(-c3ccc(F)cc3)oc2nc1N(CCN1Cc2ccccc2S1(=O)=O)S(C)(=O)=O [Example 22.994, 6-{[2-(1,1-Dioxo-1,3-dihydrobenzo[d]isothiazol-2-yl)-ethyl]-methanesulfonyl-amino}-5-ethyl-2-(4-fluoro-phenyl)-furo[2,3-b]pyridine-3-carboxylic acid methylamide] has an IC50 of 1.06 µM. CNC(=O)c1c(-c2ccc(C)cc2)oc2nc(N(CCCC(=O)O)S(C)(=O)=O)c(C3CC3)cc12 [Example 28.9, 4-(N-(5-cyclopropyl-3-(methylcarbamoyl)-2-p-tolylfuro[2,3-b]pyridin-6-yl)methylsulfonamido) butanoic acid] showed an IC50 of 0.002 µM. CNC(=O)c1c(-c2ccc(F)cc2)oc2nc(N(CCCOCCOC)S(C)(=O)=O)c(I)cc12 [Example 18.992, 2-(4-fluorophenyl)-5-iodo-6-(N-(3-(2-methoxyethoxy)propyl)methylsulfonamido)-N-methylfuro[2,3-b]pyridine-3-carboxamide] gave an IC50 of 0.237 µM. Molecule CCc1cc2c(C(=O)NC)c(-c3ccc(F)cc3)oc2nc1N(CCCN(C)C(C)=O)S(C)(=O)=O [Example 23.997, 5-ethyl-2-(4-fluorophenyl)-N-methyl-6-(N-(3-(N-methylacetamido)propyl)methylsulfonamido)furo[2,3-b]pyridine-3-carboxamide] has an IC50 of 0.058 µM. CNC(=O)c1c(-c2ccc(C)cc2)oc2nc(N(CCCC(C)(COC)C(=O)O)S(C)(=O)=O)c(C3CC3)cc12 (centres unmarked) [Example 43.1, 5-(N-(5-cyclopropyl-3-(methylcarbamoyl)-2-p-tolylfuro[2,3-b]pyridin-6-yl)methylsulfonamido)-2-(methoxymethyl)-2-methylpentanoic acid] gave an IC50 of 0.002 µM. CNC(=O)c1c(-c2ccc(F)cc2)oc2nc3c(cc12)C(C)CCCCCN3S(C)(=O)=O (centres unmarked) [Example 37, 2-(4-Fluoro-phenyl)-11-methanesulfonyl-5-methyl-6,7,8,9,10,11-hexahydro-5H-1-oxa-11,12-diaza-cyclonona[f]indene-3-carboxylic acid methylamide] gave an IC50 of 0.048 µM. For CNC(=O)c1c(-c2ccc(F)cc2)oc2nc(N(C)S(C)(=O)=O)c(C(C)C(F)(F)F)cc12 (centres unmarked) [Example 6.1, 2-(4-fluorophenyl)-N-methyl-6-(N-methylmethylsulfonamido)-5-(1,1,1-trifluoropropan-2-yl)furo[2,3-b]pyridine-3-carboxamide], the IC50 was 0.043 µM. In the case of CCOC(=O)C1(CCCN(c2nc3oc(-c4ccc(C)cc4)c(C(=O)NC)c3cc2C2CC2)S(C)(=O)=O)CCNCC1 [Example 29.999993, ethyl 4-(3-(N-(5-cyclopropyl-3-(methylcarbamoyl)-2-p-tolylfuro[2,3-b]pyridin-6-yl)methylsulfonamido)propyl) piperidine-4-carboxylate], the IC50 is reported as 0.022 µM. For CCc1cc2c(C(=O)NC)c(-c3ccc(F)cc3)oc2nc1N(CCOc1ccccc1C#N)S(C)(=O)=O [Example 21.95, 6-(N-(2-(2-cyanophenoxy)ethyl)methylsulfonamido)-5-ethyl-2-(4-fluorophenyl)-N-methylfuro[2,3-b]pyridine-3-carboxamide], the IC50 was 0.119 µM. With CNC(=O)c1c(-c2ccc(F)cc2)oc2nc(N(CCN3CCOCC3)S(C)(=O)=O)c(I)cc12 [Example 18.4, 2-(4-fluorophenyl)-5-iodo-N-methyl-6-(N-(2-morpholinoethyl)methylsulfonamido)furo[2,3-b]pyridine-3-carboxamide] the IC50 was 0.26 µM. CCc1cc2c(C(=O)NC)c(-c3ccc(F)cc3)oc2nc1N(CCCS(=O)(=O)C(F)(F)F)S(C)(=O)=O [Example 23.96, 5-ethyl-2-(4-fluorophenyl)-N-methyl-6-(N-(3-(trifluoromethylsulfonyl)propyl)methylsulfonamido) furo[2,3-b]pyridine-3-carboxamide] showed an IC50 of 0.189 µM. In the case of CNC(=O)c1c(-c2ccc(F)cc2)oc2nc3c(cc12)[C@H](C)C[C@H](O)CN3S(C)(=O)=O (single isomer, unassigned) [Example 33], the IC50 is reported as 0.17 µM. CCc1ccc(-c2oc3nc(N(CCCC(C)(CCOC)C(=O)O)S(C)(=O)=O)c(C4CC4)cc3c2C(=O)NC)cc1 (centres unmarked) [Example 42, 5-(N-(5-Cyclopropyl-2-(4-ethylphenyl)-3-(methylcarbamoyl)furo[2,3-b]pyridin-6-yl)methylsulfonamido)-2-(2-methoxyethyl)-2-methylpentanoic acid] showed an IC50 of 0.002 µM. For CNC(=O)c1c(-c2ccc(C)cc2)oc2nc(N(CCCCC(=O)O)S(C)(=O)=O)c(CCO)cc12 [Example 29.999997, 5-(N-(5-(2-hydroxyethyl)-3-(methylcarbamoyl)-2-p-tolylfuro[2,3-b]pyridin-6-yl)methylsulfonamido) pentanoic acid], the IC50 was 0.048 µM. Molecule CN(c1nc2oc(-c3ccc(F)cc3)c(C(N)=O)c2cc1C1CC1)S(C)(=O)=O [Example 2.6] has an IC50 of 0.297 µM. With CNC(=O)c1c(-c2ccc(F)cc2)oc2nc(N(C)S(C)(=O)=O)c(CCCN)cc12 [Example 15, 5-(3-aminopropyl)-2-(4-fluorophenyl)-N-methyl-6-(N-methylmethylsulfonamido)furo[2,3-b]pyridine-3-carboxamide] the IC50 was 0.532 µM. With CCc1cc2c(C(=O)NC)c(-c3ccc(F)cc3)oc2nc1N(CCCNS(C)(=O)=O)S(C)(=O)=O [Example 23.4, 5-ethyl-2-(4-fluorophenyl)-N-methyl-6-(N-(3-(methylsulfonamido)propyl)methylsulfonamido)furo[2,3-b]pyridine-3-carboxamide] the IC50 was 0.125 µM. Molecule CCc1cc2c(C(=O)NC)c(-c3ccc(F)cc3)oc2nc1N(CC[C@H]1COc2c(OC)cccc21)S(C)(=O)=O [Example 22.9, (R)-5-ethyl-2-(4-fluorophenyl)-6-(N-(2-(7-methoxy-2,3-dihydrobenzofuran-3-yl)ethyl)methylsulfonamido)-N-methylfuro[2,3-b]pyridine-3-carboxamide] has an IC50 of 0.023 µM. With CCc1ccc(-c2oc3nc(N(CCCC4(C(=O)O)CCOCC4)S(C)(=O)=O)c(C4CC4)cc3c2C(=O)NC)cc1 [Example 29.7, 4-(3-(N-(5-cyclopropyl-2-(4-ethylphenyl)-3-(methylcarbamoyl)furo[2,3-b]pyridin-6-yl)methylsulfonamido)propyl) tetrahydro-2H-pyran-4-carboxylic acid] the IC50 was 0.002 µM. CNC(=O)c1c(-c2ccc(C)cc2)oc2nc(N(CCc3ccccc3C(=O)O)S(C)(=O)=O)c(C3CC3)cc12 [Example 45, 2-(2-(N-(5-cyclopropyl-3-(methylcarbamoyl)-2-(p-tolyl)furo[2,3-b]pyridin-6-yl)methylsulfonamido)ethyl)benzoic acid] showed an IC50 of 0.008 µM. With CNC(=O)c1c(-c2ccc(F)cc2)oc2nc3c(cc12)CCCCN(S(C)(=O)=O)CCCN3S(C)(=O)=O [Example 36.5, 2-(4-Fluoro-phenyl)-9,13-bis-methanesulfonyl-6,7,8,9,10,11,12,13-octahydro-5H-1-oxa-9,13,14-triaza-cycloundeca[f]indene-3-carboxylic acid methylamide] the IC50 was 0.474 µM. Work on C=CCCN(c1nc2oc(-c3ccc(C)cc3)c(C(=O)NC)c2cc1C1CC1)S(C)(=O)=O [Example 29.98, 6-(N-(but-3-enyl)methylsulfonamido)-5-cyclopropyl-N-methyl-2-p-tolylfuro[2,3-b]pyridine-3-carboxamide] yielded an IC50 of 0.017 µM. CCc1cc2c(C(=O)NC)c(-c3ccc(F)cc3)oc2nc1N(CCCCS(=O)(=O)c1ccccc1)S(C)(=O)=O [Example 23.8, 5-ethyl-2-(4-fluorophenyl)-N-methyl-6-(N-(4-(phenylsulfonyl)butyl)methylsulfonamido)furo[2,3-b]pyridine-3-carboxamide] gave an IC50 of 0.058 µM. In the case of CCCc1cc2c(C(=O)NC)c(-c3ccc(F)cc3)oc2nc1N(C)S(C)(=O)=O [Example 4.96, 2-(4-fluorophenyl)-N-methyl-6-(N-methylmethylsulfonamido)-5-propylfuro[2,3-b]pyridine-3-carboxamide], the IC50 is reported as 0.078 µM.
